Measured values reported in patent US20120283096A1, “AGENT FOR IMPROVING PLANT GROWTH, SEEDS, AND METHOD FOR IMPROVING PLANT GROWTH” (Incorporated Administrative Agency National Agricu lture …, priority 2010, published 2012).
Where two headings read alike, the source gives them in different places.

Tests used:
[1] = Molybdenum concentration of aqueous solutions/supernatants measured by ICP-AES versus calculated values (FIGS. 5 and 6); format: physicochemical; conditions: water, FIG. 6
Description: Similarly, aqueous solutions of the slightly-soluble molybdenum-containing substances (as indicated by “Slightly-soluble” in the column “Water solubility” in Table 1) in varying concentrations were prepared. […] In particular, ammonium molybdophosphate (MoPNH), which is a salt of a heteroacid, stops dissolving at a molybdenum amount of approximately 0.2 mM or higher, and can therefore be kept at an especially low concentration.

sulfide ion generation = experiment: Inhibition of sulfide ion generation, paddy seeds covered with slightly-soluble substances (Example 2-3, FIG. 9); conditions: approximately 0.1 mmol/g (per dry seeds) in terms of molybdenum or tungsten
From the text: The water on slightly germinated seeds was lightly wiped off, and immediately after that, the seeds were put with (lightly covered with) various amounts of the slightly-soluble substances shown in Table 1. […] The number of days for which sulfide ion generation was inhibited and the proportion of seedling establishment were examined.

decay of paddy seeds = experiment: Decay-inhibiting effect in tank farming without soil (Example 3); conditions: seeds covered with substance, soaked two weeks in water at 30° C.
Description: The decay-inhibiting effect of molybdenum-containing substances in tank farming without soil was examined.
The possibility of growth and the inhibition of decay were determined in the same manner as above.

paddy rice = experiment: Seedling establishment of coated paddy seeds in submerged soil containers (Examples 4-1 to 4-4b, FIGS. 11, 14-19c); format: in vivo; conditions: germinated seeds, 30° C.
Description: The germinated paddy seeds were soaked for one minute in a tenfold diluted solution of a commercially available laundry starch (manufactured by Rocket Soap Co., Ltd.; My Laundry Starch) containing approximately a little less than 10% by weight of polyvinyl alcohol, centrifuged at 1000 rpm for removal of the extra solution, and, immediately after that, lightly covered with different amounts of ammonium molybdophosphate, whereby seeds with different amounts of ammonium molybdophosphate were prepared.
(§1) It should also be noted that in each of FIGS. 14 through 15b, the horizontal axis represents the number of moles (mmol) of molybdenum or tungsten that adhered per gram of dry seed. In each of FIGS. 14 through 15b, the dots correspond to the numbers of moles of 0, 0.02, 0.05, 0.1, 0.2, 0.5, 1, and 2 mmol, starting from the left.
as §1, with “should” for “should also”, “16” for “14”, “18,” for “15b,”, “molybdenum” for “molybdenum or tungsten”
It should be noted that in FIG. 19a, the horizontal axis represents the number of moles (mmol) of molybdenum that adhered per gram of dry seed. In FIG. 19a, the dots correspond to the numbers of moles of 0, 0.02, 0.05, 0.1, 0.2, 0.5, 1, and 2 mmol, starting from the left.
The resulting seeds were allowed to spend time in a sufficiently wet condition so that the iron rusted, and then allowed to further spend overnight. […] Six containers were allotted for each condition, and the proportion of seedling establishment and the standard error were examined. It should be noted that in FIG. 19b, the horizontal axis represents the number of moles (mmol) of molybdenum that adhered per gram of dry seed. In FIG. 19b, the dots correspond to the numbers of moles of 0, 0.02, 0.05, 0.1, 0.2, 0.5, 1, and 2 mmol, starting from the left.
Six containers were allotted for each condition, and the proportion of seedling establishment and the standard error were examined. It should be noted that in FIG. 19c, the horizontal axis represents the actual weight ratios of 25 wt % calcium peroxide that adhered with respect to the weight of dry seed. In FIG. 19c, the dots correspond to the actual weight ratios of 25 wt % calcium peroxide of 0, 0.01, 0.02, 0.05, 0.1, 0.2, 0.5, and 1 time, starting from the left.

barley [2] = experiment: Seedling establishment of barley seeds in humid soil (Example 6-1, FIG. 20a); format: in vivo; conditions: 0.01 mmol to 0.5 mmol molybdenum per gram of dry seed, 20° C., after two weeks
Description: As in Example 4-1, ammonium sulfate in an equivalent amount of 10 g/m^2 in terms of nitrogen and potassium chloride equivalent to 5 g/m^2 of potassium as potassium oxide were added as a solution to paddy humid soil in terms of 100 kg/m^2 of dry soil with a soil-to-liquid ratio of 0.7. The soil was placed into each container (in the shape of a cylinder approximately 7 cm in diameter) in an amount equivalent to 100 g of dry soil. The soil surface was flattened by giving it a slight press with a flat plate. Then, the soil was left at rest for one day at 4° C. […] The seeds were then half-buried in the soil. After that, at a constant temperature of 20° C., the water level was kept by adding water to such an extent that the seeds were slightly covered with water. Six containers were allotted for each condition, and the proportion of seedling establishment (proportion of individual plants that survived) was measured after two weeks. It should be noted that in each of FIGS. 20a and 20b, the horizontal axis represents the number of moles (mmol) of molybdenum that adhered per gram of dry seed. In each of FIGS. 20a and 20b, the dots correspond to the numbers of moles of 0, 0.01, 0.02, 0.05, 0.1, 0.2, and 0.5 mmol, starting from the left. […]

barley [3] = experiment: Avoidance of wet damage to barley in a poorly-drained paddy field (Example 7, FIG. 21); format: in vivo
From the text: To a poorly-drained paddy field in Chikugo City, Fukuoka Prefecture, 1.2 t/10 a of cow manure and ammonium sulfate in an equivalent amount of 6 kg/10 a in terms of nitrogen were applied. In November 2009, 9 kg/10 a of barley seed (branded as Nishinochikara) was planted. In February 2010, the paddy field was partitioned by corrugated plates into eight areas 50 cm×70 cm each. On Feb. 19, 2010 or Mar. 17, 2010, ammonium molybdophosphate was applied in equivalents amounts of 0, 0.03, 0.1, 0.3 mol/m^2 in terms of molybdenum. On May 11, 2010, the shoots of the barley in the areas partitioned from one another by the corrugated plates were harvested, and the dry weight was obtained.

[4] = in water, powder, trihydrate, cited from earlier work

In the case of “Triammonium 12-moblydo(VI)phosphate trihydrate [Ammonium molybdophosphate]”, the “molybdenum amount at which the substance stops dissolving” value [1] is reported as “approximately 0.2 mM”, the “number of days for which sulfide ion generation was inhibited” value (sulfide ion generation) is reported as “fourteen” and the “Inhibition of decay, Amount of molybdenum or tungsten added to seed” value (decay of paddy seeds) is reported as <0.01 mmol/g. For the same substance, the “molybdenum or tungsten amount leading to improvements in proportion of seedling establishment” value (paddy rice; polyvinyl alcohol adhesive, compared with 0 mmol/g) was ≥ 0.02 mmol per gram of dry seeds, the “proportion of seedling establishment” value (paddy rice; molybdenum amount of 0.5 mmol/g or more, FIG. 11) was ~80% and the “proportion of seedling establishment” value (barley [2]) was “improvements in proportion of seedling establishment”. The “dry weight of the shoots at harvest time, trend with amount applied” value (barley [3]; 0.03 to 0.3 mol/m^2 in terms of molybdenum) was “increase in dry weight of the shoots”, the “dry weight of the shoots at harvest time” value (barley [3]; approximately 0.3 mol/m^2 molybdenum applied in February) was “approximately 0.25 kg/m^2” and the Water solubility ([4]; listed as ammonium molybdophosphate) was “slightly soluble”. The Water solubility [4] was “Slightly soluble (has a percentage of solubility of 10% by weight or lower with respect to water)”.
